In patent publication US20070219161A1, “Preparation Process Of Oligoglycosaminoglycan, And Reducing End Glucuronic Acid Type Oligochondroitin Sulfate And Pharmaceutical Composition Comprising The Same” (priority 2004, published 2007):

Target: T1, CD44 (Homo sapiens, UniProt P16070)
T1 construct: endogenous in cells
Experiment: CD44 shedding induction by synthetic oligosaccharide in a cancer cell
Format: cell-based
Settings: electrophoresis (FIG. 9) and CD44 shedding index with the state without stimulation set to 1 (FIG. 10)
Description: FIG. 8 is a flowchart showing the outline of the test method performed in Example 4.
FIG. 9 is a copy of the electrophoresis photograph in which the electrophoresis result of the test performed in Example 4 is shown.
About the compound of the formula (20) and (21) obtained in Example 1, a CD44 shedding induction ability in a cancer cell was evaluated according to the test method shown in FIG. 8.

T1 sequence (P16070 21-742, species assumed): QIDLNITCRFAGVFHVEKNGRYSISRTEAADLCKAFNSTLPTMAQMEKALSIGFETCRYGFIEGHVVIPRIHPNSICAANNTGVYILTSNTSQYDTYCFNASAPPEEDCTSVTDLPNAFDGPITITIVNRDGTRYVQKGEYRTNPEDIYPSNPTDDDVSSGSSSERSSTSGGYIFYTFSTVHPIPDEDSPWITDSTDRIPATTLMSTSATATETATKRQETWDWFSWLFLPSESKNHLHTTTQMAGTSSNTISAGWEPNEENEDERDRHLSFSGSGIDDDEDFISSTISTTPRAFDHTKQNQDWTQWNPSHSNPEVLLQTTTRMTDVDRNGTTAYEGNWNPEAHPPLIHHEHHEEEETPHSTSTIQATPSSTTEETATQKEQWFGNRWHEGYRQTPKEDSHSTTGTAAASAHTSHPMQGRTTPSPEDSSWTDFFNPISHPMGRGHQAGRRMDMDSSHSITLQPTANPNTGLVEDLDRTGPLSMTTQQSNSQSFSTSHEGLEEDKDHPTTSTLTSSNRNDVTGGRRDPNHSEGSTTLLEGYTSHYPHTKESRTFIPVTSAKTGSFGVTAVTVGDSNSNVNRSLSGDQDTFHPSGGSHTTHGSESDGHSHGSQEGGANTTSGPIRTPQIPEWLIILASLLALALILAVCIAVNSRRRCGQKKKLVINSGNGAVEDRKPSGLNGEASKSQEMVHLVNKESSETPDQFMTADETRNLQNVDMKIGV

CD44 shedding induction ability	Substance
induced more strongly	β-D-GalNAc(4,6-di-OSO3Na)-(1->[4]-β-D-GlcA-(1->3)-β-D-GalNAc(4,6-di-OSO3Na)-(1->24)-β-D-GlcA-(1->OMP [compound of the formula (21)]
induced the shedding of a CD44	β-D-GalNAc-(1->[4]-β-D-GlcA-(1->3)-β-D-GalNAc-(1->)24)-β-D-GlcA-(1->OMP [compound of the formula (20)]
